Measured values as given in the supplement of paper PMC10307832.

Tests used:
Test in all cases: relative viability (nuclei count vs DMSO), 5 days (fraction); higher = more cells survive
[1] = compound: N#CC[C@H](C1CCCC1)n1cc(-c2ncnc3[nH]ccc23)cn1 [Ruxolitinib] + Cc1nc(NC(=O)N2CCC[C@H]2C(N)=O)sc1-c1ccnc(C(C)(C)C(F)(F)F)c1 [Alpelisib] (partner 2 µM)
In short: (§1)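 Lung cancer cell lines in 1536-well plates were dosed by pin tool the day after seeding, either with one drug alone or with a fixed anchor-drug dose plus five library-drug doses (not always all listed) in √10 steps. After 5 days, cells were fixed and their nuclei stained in one step (final 0.05% Triton X-100, 1% formaldehyde, 1 ug/ml Hoechst), then counted on 4× images. Relative viability is the nuclei count in treated wells divided by that in vehicle wells. Values are medians of duplicate plates.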

[2] = compound: N#CC[C@H](C1CCCC1)n1cc(-c2ncnc3[nH]ccc23)cn1 [Ruxolitinib] + C[C@@H](Oc1cc(-c2cnn(C3CCNCC3)c2)cnc1N)c1c(Cl)ccc(F)c1Cl [Crizotinib] (partner 1 µM)
In short: as §1

[3] = compound: N#CC[C@H](C1CCCC1)n1cc(-c2ncnc3[nH]ccc23)cn1 [Ruxolitinib] + COc1cccc2cc(-c3nc([C@H]4CC[C@H](C(=O)O)CC4)n4ncnc(N)c34)[nH]c12 [OSI-027] (partner 0.5 µM)
In short: as §1

[4] = compound: N#CC[C@H](C1CCCC1)n1cc(-c2ncnc3[nH]ccc23)cn1 [Ruxolitinib] + COc1cc2c(Oc3ccc(NC(=O)C4(C(=O)Nc5ccc(F)cc5)CC4)cc3F)ccnc2cc1OCCCN1CCOCC1 [Foretinib] (partner 0.25 µM)
In short: as §1

Cell Line: H3255
- relative viability ([1]; first compound 0.253 µM): 0.599
- relative viability ([1]; first compound 0.8 µM): 0.749
- relative viability ([1]; first compound 2.53 µM): 0.521
- relative viability ([1]; first compound 8 µM): 0.608
- relative viability ([2]; first compound 0.253 µM): 0.752
- relative viability ([2]; first compound 0.8 µM): 1.12
- relative viability ([2]; first compound 2.53 µM): 0.806
- relative viability ([2]; first compound 8 µM): 0.849
- relative viability ([3]; first compound 0.08 µM): 0.371
- relative viability ([3]; first compound 0.253 µM): 0.492
- relative viability ([3]; first compound 0.8 µM): 0.624
- relative viability ([3]; first compound 2.53 µM): 0.591
- relative viability ([3]; first compound 8 µM): 0.585
- relative viability ([4]; first compound 0.08 µM): 0.747
- relative viability ([4]; first compound 0.253 µM): 0.91
- relative viability ([4]; first compound 0.8 µM): 0.968
- relative viability ([4]; first compound 2.53 µM): 0.95
- relative viability ([4]; first compound 8 µM): 0.836

Cell Line: HARA
- relative viability ([1]; first compound 0.08 µM): 0.862
- relative viability ([1]; first compound 0.253 µM): 0.817
- relative viability ([1]; first compound 0.8 µM): 0.785
- relative viability ([1]; first compound 2.53 µM): 0.697
- relative viability ([1]; first compound 8 µM): 0.857
- relative viability ([2]; first compound 0.08 µM): 1.02
- relative viability ([2]; first compound 0.253 µM): 1.02
- relative viability ([2]; first compound 0.8 µM): 1.08
- relative viability ([2]; first compound 2.53 µM): 1.09
- relative viability ([2]; first compound 8 µM): 0.687
- relative viability ([3]; first compound 0.08 µM): 0.727
- relative viability ([3]; first compound 0.253 µM): 0.372
- relative viability ([3]; first compound 0.8 µM): 0.601
- relative viability ([3]; first compound 2.53 µM): 0.416
- relative viability ([3]; first compound 8 µM): 0.481
- relative viability ([4]; first compound 0.08 µM): 0.882
- relative viability ([4]; first compound 0.253 µM): 0.851
- relative viability ([4]; first compound 0.8 µM): 1.05
- relative viability ([4]; first compound 2.53 µM): 0.879
- relative viability ([4]; first compound 8 µM): 0.806

Cell Line: HCC-15
- relative viability ([1]; first compound 0.08 µM): 0.844
- relative viability ([1]; first compound 0.253 µM): 0.875
- relative viability ([1]; first compound 0.8 µM): 0.923
- relative viability ([1]; first compound 2.53 µM): 0.812
- relative viability ([1]; first compound 8 µM): 0.73
- relative viability ([2]; first compound 0.08 µM): 0.774
- relative viability ([2]; first compound 0.253 µM): 0.839
- relative viability ([2]; first compound 0.8 µM): 0.883
- relative viability ([2]; first compound 2.53 µM): 0.794
- relative viability ([2]; first compound 8 µM): 0.693
- relative viability ([3]; first compound 0.08 µM): 0.569
- relative viability ([3]; first compound 0.253 µM): 0.494
- relative viability ([3]; first compound 0.8 µM): 0.751
- relative viability ([3]; first compound 2.53 µM): 0.522
- relative viability ([3]; first compound 8 µM): 0.541
- relative viability ([4]; first compound 0.08 µM): 1.04
- relative viability ([4]; first compound 0.253 µM): 0.995
- relative viability ([4]; first compound 0.8 µM): 1.1
- relative viability ([4]; first compound 2.53 µM): 0.926
- relative viability ([4]; first compound 8 µM): 0.771

Cell Line: HCC-44
- relative viability ([1]; first compound 0.08 µM): 0.793
- relative viability ([1]; first compound 0.253 µM): 0.724
- relative viability ([1]; first compound 0.8 µM): 0.796
- relative viability ([1]; first compound 2.53 µM): 0.602
- relative viability ([1]; first compound 8 µM): 0.41
- relative viability ([2]; first compound 0.08 µM): 0.765
- relative viability ([2]; first compound 0.253 µM): 0.839
- relative viability ([2]; first compound 0.8 µM): 0.866
- relative viability ([2]; first compound 2.53 µM): 0.854
- relative viability ([2]; first compound 8 µM): 0.527
- relative viability ([3]; first compound 0.08 µM): 0.537
- relative viability ([3]; first compound 0.253 µM): 0.426
- relative viability ([3]; first compound 0.8 µM): 0.634
- relative viability ([3]; first compound 2.53 µM): 0.457
- relative viability ([3]; first compound 8 µM): 0.333

Cell Line: HCC-78
- relative viability ([1]; first compound 0.08 µM): 0.289
- relative viability ([1]; first compound 0.253 µM): 0.249
- relative viability ([1]; first compound 0.8 µM): 0.308
- relative viability ([1]; first compound 2.53 µM): 0.277
- relative viability ([1]; first compound 8 µM): 0.337
- relative viability ([2]; first compound 0.08 µM): 0.305
- relative viability ([2]; first compound 0.253 µM): 0.273
- relative viability ([2]; first compound 0.8 µM): 0.308
- relative viability ([2]; first compound 2.53 µM): 0.322
- relative viability ([2]; first compound 8 µM): 0.324
- relative viability ([3]; first compound 0.08 µM): 0.36
- relative viability ([3]; first compound 0.253 µM): 0.337
- relative viability ([3]; first compound 0.8 µM): 0.33
- relative viability ([3]; first compound 2.53 µM): 0.383
- relative viability ([3]; first compound 8 µM): 0.365
- relative viability ([4]; first compound 0.08 µM): 0.501
- relative viability ([4]; first compound 0.253 µM): 0.568
- relative viability ([4]; first compound 0.8 µM): 0.599
- relative viability ([4]; first compound 2.53 µM): 0.554
- relative viability ([4]; first compound 8 µM): 0.515

Cell Line: HCC-366
- relative viability ([1]; first compound 0.08 µM): 0.349
- relative viability ([1]; first compound 0.253 µM): 0.322
- relative viability ([1]; first compound 0.8 µM): 0.366
- relative viability ([1]; first compound 2.53 µM): 0.36
- relative viability ([1]; first compound 8 µM): 0.46
- relative viability ([2]; first compound 0.08 µM): 0.513
- relative viability ([2]; first compound 0.253 µM): 0.551
- relative viability ([2]; first compound 0.8 µM): 0.549
- relative viability ([2]; first compound 2.53 µM): 0.449
- relative viability ([2]; first compound 8 µM): 0.257
- relative viability ([3]; first compound 0.08 µM): 0.984
- relative viability ([3]; first compound 0.253 µM): 0.771
- relative viability ([3]; first compound 0.8 µM): 1.01
- relative viability ([3]; first compound 2.53 µM): 0.819
- relative viability ([3]; first compound 8 µM): 0.828
- relative viability ([4]; first compound 0.08 µM): 0.934
- relative viability ([4]; first compound 0.253 µM): 0.855
- relative viability ([4]; first compound 0.8 µM): 1.07
- relative viability ([4]; first compound 2.53 µM): 0.915
- relative viability ([4]; first compound 8 µM): 0.744

Cell Line: HCC-827
- relative viability ([1]; first compound 0.253 µM): 0.679
- relative viability ([1]; first compound 0.8 µM): 0.72
- relative viability ([1]; first compound 2.53 µM): 0.794
- relative viability ([1]; first compound 8 µM): 0.887
- relative viability ([2]; first compound 0.253 µM): 0.878
- relative viability ([2]; first compound 0.8 µM): 0.734
- relative viability ([2]; first compound 2.53 µM): 0.856
- relative viability ([2]; first compound 8 µM): 0.826
- relative viability ([3]; first compound 0.253 µM): 0.516
- relative viability ([3]; first compound 0.8 µM): 0.586
- relative viability ([3]; first compound 2.53 µM): 0.537
- relative viability ([3]; first compound 8 µM): 0.714
- relative viability ([4]; first compound 0.253 µM): 0.764
- relative viability ([4]; first compound 0.8 µM): 0.755
- relative viability ([4]; first compound 2.53 µM): 0.918
- relative viability ([4]; first compound 8 µM): 0.811
